The values that follow come from patent US20070088033A1, “Diaryl Substituted Pyridinones” (priority 2002, published 2007).

The target in the test is T1, human p38 kinase alpha (Homo sapiens, UniProt Q16539).
T1 construct: The coding region of the human p38 cDNA was obtained by PCR-amplification from RNA isolated from the human monocyte cell line THP.1; GST (N); made in house; host or cells: E. coli DH10B
The test can be described thus: p38 kinase in vitro assay. Format: biochemical. On the procedure: The ability of compounds to inhibit human p38 kinase alpha was evaluated using two in vitro assay methods. In the first method, activated human p38 kinase alpha phosphorylates a biotinylated substrate, PHAS-I (phosphorylated heat and acid stable protein-insulin inducible), in the presence of gamma ^32p-ATP (^32P-ATP). PHAS-I was biotinylated prior to the assay and provides a means of capturing the substrate, which is phosphorylated during the assay. p38 Kinase was activated by MKK6. Compounds were tested in 10 fold serial dilutions over the range of 100 μM to 0,001 μM using 1% DMSO. Each concentration of inhibitor was tested in triplicate.
All reactions were carried out in 96 well polypropylene plates. Each reaction well contained 25 mM HEPES pH 7.5, 10 mM magnesium acetate and 50 μM unlabeled ATP. […] Activated human p38 kinase alpha was used at 1 μg per 50 μl reaction volume representing a final concentration of 0.3 μM. Gamma ^32P-ATP was used to follow the phosphorylation of PHAS-I. ^32P-ATP has a specific activity of 3000 Ci/mmol and was used at 1.2 μCi per 50 μl reaction volume. The reaction proceeded either for one hour or overnight at 30° C.
Following incubation, 20 μl of reaction mixture was transferred to a high capacity streptavidin coated filter plate (SAM-streptavidin-matrix, Promega) prewetted with phosphate buffered saline, The transferred reaction mix was allowed to contact the streptavidin membrane of the Promega plate for 1-2 minutes. […] Filter plates were air-dried and 20 μl of scintillant was added. The plates were sealed and counted.
A second assay format was also employed that is based on p38 kinase alpha induced phosphorylation of EGFRP (epidermal growth factor receptor peptide, a 21 mer) in the presence ^33P-ATP. Compounds were tested in 10 fold serial dilutions over the range of 100 μM to 0.001 μM in 1% DMSO. Each concentration of inhibitor was tested in triplicate. Compounds were evaluated in 50 μl reaction volumes in the presence of 25 mM Hepes pH 7.5, 10 mM magnesium acetate, 4% glycerol, 0.4% bovine serum albumin, 0.4 mM DTT, 50 μM unlabeled ATP, 25 μg EGFRP (200 μM), and 0.05 μCi ^33p-ATP. Reactions were initiated by addition of 0.09 μg of activated, purified human GST-p38 kinase alpha. Activation was carried out using GST-MKK6 (5:1,p38:MKK6) for one hour at 30° C. in the presence of 50 μM ATP. Following incubation for 60 minutes at room temperature, the reaction was stopped by addition of 150 μl of AG 1×8 resin in 900 mM sodium formate buffer, pH 3.0 (1 volume resin to 2 volumes buffer). The mixture was mixed three times with pipetting and the resin was allowed to settle. A total of 50 μl of clarified solution head volume was transferred from the reaction wells to Microlite-2 plates. 150 μl of Microscint 40 was then added to each well of the Microlite plate, and the plate was sealed, mixed, and counted.

Where [1] appears, read: Table II, several values in a cell = repeat determinations, read-out: p38A.
The mark [2] stands for this setting: Table III, n = number of times assayed, n=1 if not reported, read-out: p38 Alpha IC50.
Setting [3] is: Table I, average of n trials, n=1 if not reported, read-out: p38 Alpha IC50.

“And” between values parts separate entries of the source, which are not always exact repeats. Equal entries are not always repeated. Where two headings read alike, the source gives them in different places.

T1 sequence (Q16539 whole entry): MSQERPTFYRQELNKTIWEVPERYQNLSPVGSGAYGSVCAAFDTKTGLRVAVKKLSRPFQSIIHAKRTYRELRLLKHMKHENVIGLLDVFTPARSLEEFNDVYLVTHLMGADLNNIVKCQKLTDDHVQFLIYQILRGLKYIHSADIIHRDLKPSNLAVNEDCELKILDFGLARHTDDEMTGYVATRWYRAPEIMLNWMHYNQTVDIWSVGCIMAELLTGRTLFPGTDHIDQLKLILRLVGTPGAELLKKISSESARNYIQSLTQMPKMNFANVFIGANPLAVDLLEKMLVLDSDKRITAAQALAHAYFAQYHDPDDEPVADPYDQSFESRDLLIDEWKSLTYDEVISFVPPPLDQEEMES

For `CC(C)(C)c1ccc(Cn2ccc(OCc3ccccc3)c(Br)c2=O)cc1` [ZZ], the IC50 under setting [1] was determined as 3.67 µM.

With `CCn1ccc(OCc2ccccc2)c(Br)c1=O` [AAA], the IC50 under setting [1] was determined as 1.99 µM.

As for `O=c1c(Br)c(OCc2ccccc2)ccn1Cc1ccc(F)nc1` [RRRRR], the IC50 under setting [2] was 1.85 µM.

For the molecule `O=c1c(Br)c(OCc2ccc(F)cc2)ccn1Cc1cccnc1` [II], the IC50 under setting [3] amounted to 0.873 µM.

With `O=c1c(Br)c(OCc2ccccc2)ccn1CC1CCNCC1` [III], under setting [1], the IC50 is 90.9 µM.

Regarding `Cc1cc(OCc2cccc(Cl)c2)c(Br)c(=O)n1Cc1ccccc1` [CCC], under setting [1], the IC50 was 1.6 µM.

Consider `O=c1c(Br)c(OCc2ccccc2CO)ccn1Cc1cccc(F)c1` [CCCCC], for which, under setting [2], the IC50 was 0.663 µM.

Consider `Cc1c(OCc2ccccc2)ccn(Cc2ccccc2)c1=O` [JJJ], for which, under setting [1], the IC50 is 7.99 µM and 3.46 µM.

`O=C(O)c1ccc(Cn2ccc(OCc3ccccc3)c(Br)c2=O)cc1` [T]: the IC50 under setting [3] was found to be 0.423 µM.

In the case of `COc1ccc(Cn2ccc(OCc3ccc(F)cc3)c(Br)c2=O)cc1` [GGGGG], the IC50 under setting [2] is 1.04 µM.

On to `O=c1c(Br)c(OCc2ccc(F)cc2F)ccn1Cc1cccnc1` [XXXX], for which, under setting [2], the IC50 was determined as 0.282 µM.

`Cc1cccc(COc2ccn(Cc3cccc(F)c3)c(=O)c2Br)c1` [H]: the IC50 under setting [3] was determined as 0.26 µM.

On to `O=c1c(Br)c(OCc2ccccc2)ccn1Cc1ccc(Cl)cc1` [R], for which the IC50 under setting [3] is 0.398 µM.

On to `O=c1c(Br)c(OCc2ccc(F)cc2)ccn1Cc1ccc(F)cc1` [B], for which the IC50 under setting [3] amounted to 0.403 µM.

Regarding `O=c1c(Br)c(OCc2ccc(Cl)cc2)ccn1CCSc1ccccc1` [RRR], the IC50 under setting [1] is 56.5 µM.

`O=c1cc(OCc2ccccc2)ccn1Cc1ccc(F)cc1` [NNNN]: under setting [1], the IC50 worked out at 64.8 µM.

As to `O=c1c(Br)c(OCc2ccc(F)cc2F)ccn1Cc1ccccc1F` [M], the IC50 under setting [3] is 0.36 µM.

`Cc1cccc(C)c1-n1ccc(OCc2ccc(F)cc2)c(Br)c1=O` [BBBBB]: the IC50 under setting [2] was found to be 0.455 µM.

For `Cc1cc(OCc2ccc(F)cc2)c(Br)c(=O)n1-c1c(Cl)cccc1Cl` [P], the IC50 under setting [3] stood at 0.403 µM.

For the molecule `COc1cccc(C)c1-n1c(C)cc(OCc2ccc(F)cc2F)c(Br)c1=O` [L], the IC50 under setting [3] turned out to be 0.294 µM.

`O=c1c(Br)c(OCc2ccc(Cl)cc2)ccn1Cc1ccccc1` [MM]: the IC50 under setting [1] turned out to be 1.38 µM.

As for `O=c1c(Br)c(OCc2cccc(Cl)c2)ccn1Cc1cccc(F)c1` [AA], the IC50 under setting [3] amounted to 0.691 µM.

On to `COc1cccc(Cn2ccc(OCc3ccc(F)cc3F)c(Br)c2=O)c1` [Example S], for which the IC50 under setting [3] was 0.498 µM.

Regarding `O=c1c(Br)c(OCc2cccc(Cl)c2)ccn1Cc1cccc(F)c1` [DDDDD], the IC50 under setting [2] is 0.691 µM.

With `O=c1c(Br)c(OCc2ccccc2)ccn1Cc1ccc(F)cc1` [D], under setting [3], the IC50 was 0.17 µM.

`Cc1cc(OCc2ccc(F)cc2F)c(Br)c(=O)n1Cc1ccncc1` [VVVV]: the IC50 under setting [2] worked out at 0.183 µM.

As to `O=c1c(Br)c(OCc2ccc(F)cc2)ccn1Cc1cccc(F)c1` [BB], the IC50 under setting [3] turned out to be 0.632 µM.

As for `Cc1cc(OCc2ccc(F)cc2F)c(Br)c(=O)n1Cc1cccnc1` [RRRR], under setting [2], the IC50 is 0.132 µM.

`Cc1cccc(COc2ccn(Cc3cccc(F)c3)c(=O)c2Br)c1` [WWWW]: under setting [2], the IC50 was 0.26 µM.

Take `N/C(=N/O)c1ccc(Cn2ccc(OCc3ccccc3)c(Br)c2=O)cc1` [Y]: the IC50 under setting [3] was 0.489 µM.

With `Cc1cc(OCc2cccc(Cl)c2)c(Br)c(=O)n1Cc1ccccc1` [OOOOO], under setting [2], the IC50 is 1.6 µM.

Regarding `O=c1c(Br)c(OCc2ccccc2)ccn1Cc1ccc(OC(F)(F)F)cc1` [DDDD], the IC50 under setting [1] was 2.51 µM.

Take `Cc1ccc(COc2ccn(Cc3ccccc3)c(=O)c2Br)cc1` [LL]: the IC50 under setting [1] worked out at 1.73 µM.

As to `O=c1c(Cl)c(OCc2ccccc2)ccn1Cc1ccccc1` [X], under setting [3], the IC50 is 0.45 µM.

For the molecule `O=c1c(Br)c(OCc2ccc(F)cc2)ccn1Cc1ccc(F)cc1` [SS], the IC50 under setting [1] was 1.25 µM and 0.921 µM.

With `O=c1cc(OCc2ccccc2)ccn1Cc1ccccc1F` [FFFF], the IC50 under setting [1] was 33.8 µM.

`O=c1c(Cl)c(OCc2ccc(F)cc2)ccn1Cc1ccc(F)cc1` [FFFFF]: under setting [2], the IC50 turned out to be 1.08 µM.

Take `Cn1ccc(OCc2ccccc2)c(Br)c1=O` [EEE]: the IC50 under setting [1] turned out to be 11.5 µM.

As for `O=c1c(I)c(OCc2ccccc2)ccn1Cc1cccc(F)c1` [PPPPP], the IC50 under setting [2] is 1.76 µM.

For `O=c1c(Br)c(SCc2ccccc2)ccn1Cc1ccccc1` [BBBB], the IC50 under setting [1] amounted to 3.6 µM.

As for `O=c1cc(OCc2ccccc2)ccn1Cc1ccccc1` [EEEE], the IC50 under setting [1] was 26.4 µM and 59.2 µM and 49 µM.

Take `O=c1c(Br)c(OCc2ccc(F)cc2)ccn1Cc1cccc(Cl)c1` [UU]: under setting [1], the IC50 came to 1.14 µM.

In the case of `O=c1c(Br)c(OCc2ccc(Cl)cc2)ccn1Cc1ccc(F)cc1` [PP], the IC50 under setting [1] is 1.9 µM.

For `O=c1cc(OCc2ccccc2)ccn1Cc1cccc(F)c1` [PPP], the IC50 under setting [1] is 35.8 µM.

Regarding `COC(=O)c1ccc(Cn2ccc(OCc3ccccc3)c(Br)c2=O)cc1` [Z], the IC50 under setting [3] was determined as 0.507 µM.

In the case of `Cc1cc(OCc2c(F)cc(F)cc2F)c(Br)c(=O)n1Cc1ccncc1` [UUUU], the IC50 under setting [2] worked out at 0.192 µM.

Turning to `COc1ccc(Cn2ccc(OCc3ccc(Cl)cc3)c(Br)c2=O)cc1` [QQ], under setting [1], the IC50 is 2.41 µM.

With `CSc1ccc(Cn2ccc(OCc3ccccc3)c(Br)c2=O)cc1` [W], the IC50 under setting [3] was found to be 0.45 µM.

Take `O=c1c(Br)c(OCc2ccccc2)ccn1CCc1cccs1` [YYY]: the IC50 under setting [1] was determined as 2.23 µM.

For the molecule `Cc1cc(CCc2ccccc2)c(Br)c(=O)n1Cc1cccc(F)c1` [LLLLL], the IC50 under setting [2] came out at 1.71 µM.

On to `O=c1c(Br)c(OCc2ccccc2)ccn1Cc1ccc(C(F)(F)F)cc1` [MMMMM], for which the IC50 under setting [2] came out at 1.53 µM.

Turning to `N#Cc1ccc(Cn2ccc(OCc3ccc(F)cc3)c(Br)c2=O)cc1` [GG], under setting [3], the IC50 was found to be 0.785 µM.

In the case of `O=c1cc(OCc2ccccc2)ccn1Cc1ccc(Cl)cc1` [GGGG], the IC50 under setting [1] is 31.9 µM.

Turning to `Cc1c(Br)c(OCc2ccccc2)c(Br)c(=O)n1Cc1ccccc1` [FFF], the IC50 under setting [1] was found to be 41.6 µM.

As to `O=c1c(Br)c(OCc2ccccc2C(F)(F)F)ccn1Cc1ccccc1` [CCCC], the IC50 under setting [1] worked out at 77.6 µM.

Turning to `O=c1c(Br)c(OCc2ccc(Cl)cc2)ccn1CCc1ccccc1` [DDD], the IC50 under setting [1] was determined as 6.63 µM.

As for `Cc1cccc(C)c1-n1c(C)cc(OCc2ccc(F)cc2)c(Br)c1=O` [V], under setting [3], the IC50 was found to be 0.455 µM.

Regarding `Cc1cc(OCc2ccccc2)cc(=O)n1Cc1ccccc1` [OOOO], under setting [1], the IC50 worked out at 38.7 µM.

As to `O=c1c(Br)c(OCc2ccccc2)ccn1Cc1ccc(Br)cc1` [FF], under setting [3], the IC50 was 0.581 µM.

For `O=c1c(Br)c(OCc2ccc(F)cc2)ccn1CC1CC1` [JJJJJ], the IC50 under setting [2] is 1.55 µM.

`Cc1cc(OCc2ccc(F)cc2F)c(Br)c(=O)n1Cc1ccncc1` [I]: the IC50 under setting [3] came to 0.21 µM.

`O=c1c(Br)c(OCc2ccc(F)cc2)ccn1Cc1ccncc1` [EE]: the IC50 under setting [3] is 0.572 µM.

`O=c1c(Br)c(OCc2ccccc2)ccn1Cc1ccc(OCc2ccccc2)cc1` [KKKKK]: the IC50 under setting [2] is 1.45 µM.

Turning to `Cc1ccc(Cn2ccc(OCc3ccccc3)c(Br)c2=O)cc1` [Q], under setting [3], the IC50 came out at 0.365 µM.

With `O=c1c(Br)c(OCc2ccc(Cl)cc2)ccn1Cc1cccc(Cl)c1` [RR], the IC50 under setting [1] turned out to be 6.8 µM.

`O=c1c(Br)c(OCc2ccccc2)ccn1Cc1cccc(F)c1` [J]: the IC50 under setting [3] was 0.7 µM.

As to `O=c1c(Br)c(OCc2ccccc2)ccn1Cc1cccc(C(F)(F)F)c1` [SSS], the IC50 under setting [1] was 9.86 µM.

For the molecule `O=c1c(Br)c(OCc2ccccc2)ccn1Cc1ccccc1F` [U], under setting [3], the IC50 was 0.427 µM.

As for `Cc1cc(OCc2ccccc2)c(Br)c(=O)n1Cc1ccccc1` [K], the IC50 under setting [3] was 0.219 µM.

`Cc1ccccc1COc1ccn(Cc2cccc(F)c2)c(=O)c1Br` [NNNNN]: the IC50 under setting [2] was 1.69 µM.

In the case of `Cc1cc(OCc2c(F)cccc2F)c(Br)c(=O)n1-c1c(Cl)cccc1Cl` [YYYY], the IC50 under setting [2] is 0.339 µM.

For the molecule `NCc1cccc(Cn2ccc(OCc3ccc(F)cc3)c(Br)c2=O)c1` [TTTT], the IC50 under setting [2] was 0.175 µM.

As for `O=c1c(Br)c(OCc2ccc(F)cc2F)ccn1Cc1cccc(F)c1` [E], the IC50 under setting [3] came out at 0.129 µM.

For the molecule `O=c1cc(OCc2ccccc2Cl)ccn1Cc1ccccc1` [WWW], under setting [1], the IC50 came to 81.8 µM.

Consider `CCn1ccc(OCc2ccccc2)c(Br)c1=O` [SSSSS], for which, under setting [2], the IC50 amounted to 1.99 µM.
